Structures are written as SMILES.

This data set in a line: method code SF-AS, from PMID: 1608988. Particulars: pH 7.3.
Turning to `CCCCCCCOc1cccc(NC(=O)OCCN2CCOCC2)c1`, the logD (in general, the decadic logarithm of the distribution of all forms, ionised or not, between an organic phase and buffer at a given pH) turned out to be 4.73.

Compound `CCCCCCOc1ccc(NC(=O)OCCN2CCOCC2)cc1` gave a logD of 3.96.

`CCOc1ccccc1NC(=O)OCCN1CCOCC1` returned a logD of 1.76.

On to `COc1ccccc1NC(=O)OCCN1CCOCC1`, for which the logD came to 1.2.

Compound `CCCOc1ccc(NC(=O)OCCN2CCOCC2)cc1` yielded a logD of 2.24.

`CCCOc1cccc(NC(=O)OCCN2CCOCC2)c1` returned a logD of 2.5.

Turning to `CCCCCCCCOc1cccc(NC(=O)OCCN2CCOCC2)c1`, the logD stood at 4.42.

In turn, `CCCCCCCCOc1ccc(NC(=O)OCCN2CCOCC2)cc1` displayed a logD of 4.8.

For `CCCCCOc1ccccc1NC(=O)OCCN1CCOCC1`, the logD came out at 3.18.

On to `CCCCOc1cccc(NC(=O)OCCN2CCOCC2)c1`, for which the logD was found to be 3.08.

Consider `CCCOc1ccccc1NC(=O)OCCN1CCOCC1`, for which the logD came to 2.26.

As to `CCCCCCCCOc1ccccc1NC(=O)OCCN1CCOCC1`, the logD is 4.43.

Compound `CCCCCCOc1ccccc1NC(=O)OCCN1CCOCC1` yielded a logD of 3.68.

As to `CCCCOc1ccccc1NC(=O)OCCN1CCOCC1`, the logD worked out at 2.73.

`CCOc1ccc(NC(=O)OCCN2CCOCC2)cc1` had a log distribution coefficient (logD) of 1.63.

`CCCCOc1ccc(NC(=O)OCCN2CCOCC2)cc1` yielded a logD of 2.8.

In turn, `COc1cccc(NC(=O)OCCN2CCOCC2)c1` yielded a logD of 1.64.

`CCCCCOc1cccc(NC(=O)OCCN2CCOCC2)c1` returned a logD of 3.58.

As to `CCCCCCCOc1ccccc1NC(=O)OCCN1CCOCC1`, the logD was found to be 3.99.

Turning to `CCCCCCOc1cccc(NC(=O)OCCN2CCOCC2)c1`, the logD was determined as 4.19.

For `CCCCCOc1ccc(NC(=O)OCCN2CCOCC2)cc1`, the logD came to 3.41.

`CCCCCCCOc1ccc(NC(=O)OCCN2CCOCC2)cc1` displayed a logD of 4.41.

Values taken from the SangsterLogP compilation.
